From patent US5622947A, “Benzoheterocyclic compounds and vasopressin antagonist and oxytocin antagonist compositions containing a benzoheterocyclic compound” (Otsuka Pharmaceutical Co., Ltd., priority 1992, dated 1997) come the findings set out here.

Structures can show the parent of a compound that is named as a salt.

The target in assay [1] is T1, V2 Recepter (rat kidney plasma membrane preparations) (Rattus norvegicus, UniProt Q00788).
T1 construct: rat kidney plasma membrane preparations; from tissue; host or cells: rat kidney plasma membranes
T1 sequence (Q00788 whole entry): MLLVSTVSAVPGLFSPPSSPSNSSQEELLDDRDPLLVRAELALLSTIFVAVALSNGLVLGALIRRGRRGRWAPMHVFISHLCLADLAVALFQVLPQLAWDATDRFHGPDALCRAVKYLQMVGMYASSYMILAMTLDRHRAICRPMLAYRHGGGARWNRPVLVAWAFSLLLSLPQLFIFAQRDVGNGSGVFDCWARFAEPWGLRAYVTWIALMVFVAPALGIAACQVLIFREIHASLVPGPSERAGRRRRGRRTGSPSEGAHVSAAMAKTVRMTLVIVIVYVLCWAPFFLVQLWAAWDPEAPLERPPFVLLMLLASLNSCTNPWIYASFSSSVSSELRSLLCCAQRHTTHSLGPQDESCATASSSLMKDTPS
Put plainly: V2 Recepter binding assay. The note with it: [3H]-Arg-vasopressin 4×10^-10 M, 4° C., pH 8.0, rat kidney plasma membrane. The essentials: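 Rat kidney plasma membranes incubated with [^3H]-Arg-vasopressin (4×10^-10 M) and test compound (10^-10 to 10^-5 M) for 3 h at 4 °C in 100 mM Tris-HCl pH 8.0 with 5 mM MgCl2, 1 mM EDTA, 0.1% BSA. Bound label by filtration and scintillation counting; nonspecific binding with 10^-6 M vasopressin; IC50 reported.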

For assay [2], the target named is T2, V1 Recepter (rat liver plasma membrane preparations) (Rattus norvegicus, UniProt P30560).
T2 construct: rat liver plasma membrane preparations; from tissue; host or cells: rat liver plasma membranes
T2 sequence (P30560 whole entry): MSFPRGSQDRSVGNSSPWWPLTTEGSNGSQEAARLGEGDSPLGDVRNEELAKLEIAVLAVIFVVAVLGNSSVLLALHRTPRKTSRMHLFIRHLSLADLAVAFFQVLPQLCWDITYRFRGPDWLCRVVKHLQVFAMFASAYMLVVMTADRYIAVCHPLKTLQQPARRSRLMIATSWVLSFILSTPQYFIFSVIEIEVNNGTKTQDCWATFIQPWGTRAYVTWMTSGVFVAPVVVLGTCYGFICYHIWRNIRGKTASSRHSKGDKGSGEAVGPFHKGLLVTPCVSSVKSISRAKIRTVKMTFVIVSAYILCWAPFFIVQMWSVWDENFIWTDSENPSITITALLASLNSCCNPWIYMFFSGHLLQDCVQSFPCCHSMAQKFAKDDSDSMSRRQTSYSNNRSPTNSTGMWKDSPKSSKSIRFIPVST
Put plainly: V1 Recepter binding assay. Conditions: [3H]-Arg-vasopressin 2×10^-10 M, 37° C., 10 minutes, pH 8.0, rat liver plasma membrane. As for the experimental part:
Test-1: V1 Recepter binding assay
By using rat liver plasma membrane preparations prepared according to Ichiraha's method [by Akira Ichihara: J. Bio. Chem., 258, 9283 (1983)], the plasma membrane (50,000 dpm, 2×10^-10 M) of [^3 H]-Arg-vasopressin and a test compound (60 μg, 10^-8 to 10^-4 M) were incubated at 37° C. for 10 minutes in 250 μl (in total volume) of 100 mM Tris-HCl buffer (pH=8.0), containing 5 mM MgCl2, 1 mM EDTA and 0.1% BSA. After the incubation, the mixture was filtered three times by using a glass filter (GF/F) so as to separate the membrane preparation by combining with vasopressin and then washed with the buffer (5 ml). This glass filter was taken out and mixed with a liquid of scintillation cocktail. The amount of [^3 H]-vasopressin combining with the membrane was measured by liquid scintillation counter and the rate of inhibitory effect of the test compound was calculated according to the following equation: […]
C1 : the amount of [^3 H]-vasopressin combining with the membrane in the presence of the test compound of a known amount,
C0 : the amount of [^3 H]-vasopressin combining with the membrane in the absence of the test compound,
B1 : the amount of [^3 H]-vasopressin combining with the membrane in the presence of the excess amount of vasopressin (10^-6 M).
The results are expressed as IC50 value, which is the concentration of the test compound required to achieve the inhitory effect in the rate of 50% and are shown in the following Table 156.

In assay [3] the target is T3, Oxytocin receptor (uterin muscle membrane preparation) (Rattus norvegicus, UniProt P70536).
T3 construct: was homogenized, which was used as a membrane; from tissue; host or cells: uterine muscle membranes from diethylstilbestrol-treated animals
T3 sequence (P70536 1-388): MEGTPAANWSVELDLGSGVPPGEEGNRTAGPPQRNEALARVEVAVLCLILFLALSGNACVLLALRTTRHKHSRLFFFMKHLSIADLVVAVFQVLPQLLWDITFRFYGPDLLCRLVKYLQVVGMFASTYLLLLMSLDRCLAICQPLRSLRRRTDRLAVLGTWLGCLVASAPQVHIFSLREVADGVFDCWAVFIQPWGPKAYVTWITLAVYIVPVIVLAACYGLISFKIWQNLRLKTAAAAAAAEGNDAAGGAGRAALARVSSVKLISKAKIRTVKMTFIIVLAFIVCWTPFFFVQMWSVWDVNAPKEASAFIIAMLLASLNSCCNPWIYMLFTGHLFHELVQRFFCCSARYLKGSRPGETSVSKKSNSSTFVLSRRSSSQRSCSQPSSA
Put plainly: Oxytocin receptor binding assay. Conditions: [3H]-oxytocin 10^-9 M, 25°, one hour, pH 8.0, uterin muscle membrane, DES-treated. The essentials:
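Rat uterine membranes (0.2 mg; DES-primed day before) incubated 1 h at 25° with [3H]-oxytocin (10^-9 M) and compound (10^-9 to 10^-5 M) in 100 mM Tris-HCl pH 8.0, 5 mM MgCl2, 1 mM EDTA, 0.1% BSA. Filter-bound radioactivity counted; nonspecific with 5×10^-6 M oxytocin; IC50 reported.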

For `CCN1CCN(C(=O)CCOC2CCCN(C(=O)c3ccc(N4Cc5ccccc5C4=O)cc3)c3ccc(Cl)cc32)CC1` (stereo not drawn) [Example 132, 5-(4-Ethyl-1-piperazinyl)carbonylethoxy-7-chloro-1-[4-(1-oxoisoindolin-2-yl)benzoyl]-2,3,4,5-tetrahydro-1H-benzoazepine], the half-maximal inhibitory concentration (IC50) (commonly the point on the concentration scale where inhibition reaches its midpoint) in assay [1] was determined as 120 nM; in assay [2] it was 90 nM; in assay [3], 478 nM.
In the same order, the values of `CNC(=S)NCCOC1CCCN(C(=O)c2ccc(NC(=O)c3ccccc3Cl)cc2OC)c2ccc(Cl)cc21` (stereo not drawn) [Example 133, 5-(2-Methylaminothiocarbonylaminoethoxy)-7-chloro-1-[2-methoxy-4-(2-chlorobenzoylamino)benzoyl]-2,3,4,5-tetrahydro-1H-benzoazepine] are 49 nM, 20 nM and 72 nM.
In the same order, the values of `COc1cc(NC(=O)c2ccccc2Cl)ccc1C(=O)N1CCCC(CC(=O)NCc2cnc(C)cn2)c2cc(Cl)ccc21` (stereo not drawn) [Example 134, 5-(5-Methyl-2-pyrazinyl)methylaminocarbonylmethyl-7-chloro-1-[2-methoxy-4-(2-chlorobenzoylamino)benzoyl]-2,3,4,5-tetrahydro-1H-benzoazepine] are 4 nM, 12 nM and 96 nM.
In the same order, the values of `COc1cc(NC(=O)c2ccccc2Cl)ccc1C(=O)N1CCCC(OCCNC(C)=N)c2cc(Cl)ccc21` (stereo not drawn) [Example 135, 5-[2-(1-Iminoethyl)aminoethoxy]-7-chloro-1-[2-methoxy-4-(2-chlorobenzoylamino)benzoyl]-2,3,4,5-tetrahydro-1H-benzoazepine.cndot.hydrochloride] are 4.9 nM, 18 nM and 146 nM.
Regarding `COc1cc(NC(=O)c2ccccc2Cl)ccc1C(=O)N1CCCC(OCCNC(N)=O)c2cc(Cl)ccc21` (stereo not drawn) [Example 136, 5-(2-Ureidoethoxy)-7-chloro-1-[2-methoxy-4-(2-chlorobenzoylamino)benzoyl]-2,3,4,5-tetrahydro-1H-benzoazepine], the figures for the concentration for half-maximal inhibition (IC50) in assay [1], in assay [2] and in assay [3] were 4.3 nM, 37 nM and 151 nM, respectively.
For `CCOC(=O)NCCOC1CCCN(C(=O)c2ccc(NC(=O)c3ccccc3Cl)cc2OC)c2ccc(Cl)cc21` (stereo not drawn) [Example 137, 5-(2-Ethoxycarbonylaminoethoxy)-7-chloro-1-[2-methoxy-4-(2-chlorobenzoylamino)benzoyl]-2,3,4,5-tetrahydro-1H-benzoazepine], the IC50 in assay [1] was 5 nM; in assay [2] it was 17 nM; in assay [3], 451 nM.
In the same order, the values of `COc1cc(NC(=O)c2ccccc2Cl)ccc1C(=O)N1CCCC(OCCNC2CC2)c2cc(Cl)ccc21` (stereo not drawn) [Example 138, 5-(2-Cyclopropylaminoethoxy)-7-chloro-1-[2-methoxy-4-(2-chlorobenzoylamino)benzoyl]-2,3,4,5-tetrahydro-1H-benzoazepine.cndot.hydrochloride] are 3 nM, 5 nM and 233 nM.
As for `COc1cc(NC(=O)c2ccccc2Cl)ccc1C(=O)N1CCCC(OCCSc2ccncc2)c2cc(Cl)ccc21` (stereo not drawn) [Example 139, 5-[2-(4-Pyridyl)thioethoxy]-7-chloro-1-[2-methoxy-4-(2-chlorobenzoylamino)benzoyl]-2,3,4,5-tetrahydro-1H-benzoazepine], the IC50 in assay [1] came to 12 nM; in assay [2], 120 nM; in assay [3] it was 1000 nM.
In the same order, the values of `COc1cc(NC(=O)c2ccccc2Cl)ccc1C(=O)N1CCCC(OCCSc2nccc(C)n2)c2cc(Cl)ccc21` (stereo not drawn) [Example 140] are 46 nM, 280 nM and 4290 nM.
Regarding `COc1cc(NC(=O)c2ccccc2Cl)ccc1C(=O)N1CCCC(OCCSc2ncc[nH]2)c2cc(Cl)ccc21` (stereo not drawn) [Example 141, 5-[2-(2-Imidazolyl)thioethoxy]-7-chloro-1-[2-methoxy-4-(2-chlorobenzoylamino)benzoyl]-2,3,4,5-tetrahydro-1H-benzoazepine], the results for the IC50 in assay [1], in assay [2] and in assay [3] were 7.6 nM, 56 nM and 193 nM, respectively.
In the same order, the values of `COc1cc(NC(=O)c2ccccc2Cl)ccc1C(=O)N1CCCC(OCCS(=O)(=O)c2ccncc2)c2cc(Cl)ccc21` (stereo not drawn) [Example 142, 5-[2-(4-Pyridyl)sulfonylethoxy]-7-chloro-1-[2-methoxy-4-(2-chlorobenzoylamino)benzoyl]-2,3,4,5-tetrahydro-1H-benzoazepine] are 38 nM, 98 nM and 1130 nM.
Regarding `COc1cc(NC(=O)c2ccccc2Cl)ccc1C(=O)N1CCCC(OCC[S+]([O-])c2ccncc2)c2cc(Cl)ccc21` (stereo not drawn) [Example 143, 5-[2-(4-Pyridyl)sulfinylethoxy]-7-chloro-1-[2-methoxy-4-(2-chlorobenzoylamino)benzoyl]-2,3,4,5-tetrahydro-1H-benzoazepine], the figures for the IC50 in assay [1], in assay [2] and in assay [3] were 22 nM, 13 nM and 200 nM, respectively.
For `COc1cc(NC(=O)c2ccccc2Cl)ccc1C(=O)N1CCCC(OCC[S+]([O-])c2ncc[nH]2)c2cc(Cl)ccc21` (stereo not drawn) [Example 144, 5-[2-(2-Imidazolyl)sulfinylethoxy]-7-chloro-1-[2-methoxy-4-(2-chlorobenzoylamino)benzoyl] 2,3,4,5-tetrahydro-1H-benzoazepine] the same measures were 9.9 nM, 55 nM and 354 nM.
In the same order, the values of `COc1cc(NC(=O)c2ccccc2Cl)ccc1C(=O)N1CCCC(OCCS(=O)(=O)c2ncc[nH]2)c2cc(Cl)ccc21` (stereo not drawn) [Example 145, 5-[2-(2-Imidazolyl)sulfonylethoxy]-7-chloro-1-[2-methoxy-4-(2-chlorobenzoylamino)benzoyl]-2,3,4,5-tetrahydro-1H-benzoazepine] are 14 nM, 91 nM and 849 nM.
With `COc1cc(NC(=O)c2ccccc2Cl)ccc1C(=O)N1CCCC(CCN2CCN(S(C)(=O)=O)CC2)c2cc(Cl)ccc21` (stereo not drawn) [Example 146, 5-[2-(4-Methanesulfonyl-1-piperazinyl)ethyl]-7-chloro-1-[2-methoxy-4-(2-chlorobenzoylamino)-benzoyl]-2,3,4,5-tetrahydro-1H-benzoazepine], the half-maximal inhibitory concentration (IC50) in assay [1] came to 10 nM; in assay [2] it was 54 nM; in assay [3], 154 nM.
For `CCOC(=O)N1CCN(CCC2CCCN(C(=O)c3ccc(NC(=O)c4ccccc4Cl)cc3OC)c3ccc(Cl)cc32)CC1` (stereo not drawn) [Example 147, 5-[2-(4-Ethoxycarbonyl-1-piperazinyl)ethyl]-7-chloro-1-[2-methoxy-4-(2-chlorobenzoylamino)-benzoyl]-2,3,4,5-tetrahydro-1H-benzoazepine] the same measures were 14 nM, 39 nM and 504 nM.
With `CNC(=O)N1CCN(CCC2CCCN(C(=O)c3ccc(NC(=O)c4ccccc4Cl)cc3OC)c3ccc(Cl)cc32)CC1` (stereo not drawn) [Example 148, 5-[2-(4-Methylaminocarbonyl-1-piperazinyl)ethyl]-7-chloro-1-[2-methoxy-4-(2-chlorobenzoylamino)benzoyl]-2,3,4,5-tetrahydro-1H-benzoazepine], the half-maximal inhibitory concentration (IC50) is 5 nM in assay [1], 54 nM in assay [2] and 225 nM in assay [3].
